{"source": "patent US20100311674A1", "about": "“PHARMACEUTICAL COMPOSITIONS WITH A MECHANISM OF MULTI-TARGET RECEPTOR RETROACTION FOR TREATING DEPRESSION” (Yu-Fen Chi, priority 2007, published 2010)", "format_in_all_cases": "in vivo", "key": {"ICR mice [1]": {"system": "ICR mice", "assay": "Mouse tail-hanging test of the debris mixture (Experiment 11)", "conditions": "3 mg/kg P.O. 7 days; 1 h after last dose; last 5 of 6 min", "source_text": "Nine (9) kg of the remained ginseng debris, 7 kg of the remained liquorice debris and 0.9 kg of the jujuba debris from the Embodiments 1 and 4 extraction procedures are collected, dried, pulverized, and mixed well for obtaining the debris mixture containing the trace amount of ginsenoside Rg1 and Rb1, glycyrrhizic acid and jujuba cAMP. The control experiment of examining the influence of the debris in the mouse tail-hanging test is proceeded. 11.1 Experimental animals: ICR mice, male, 22.0±2 g of body weight, secondary, are provided by the Experimental Animal Science Department of Capital Medical University, Beijing. 11.2 Experiment pharmaceuticals: The debris mixture is provided by Beijing Wonner Biotech. […] High dose of debris mixture (160 mg/kg/d); 2. middle dose of debris mixture (80 mg/kg/d); and 3. low dose of debris mixture (40 mg/kg/d). 11.5.1 Group division and administration of drug: The mice are grouped randomly with 10 mice in each group. 1. […] The time of non-movement of the mouse for the last 5 minutes is recorded. 11.5.3 Statistic calculation: The experimental data are represented as X±SD, and the experimental result is calculated as ANOVA by SPSS 11.5 statistic software."}, "ICR mice [2]": {"system": "ICR mice", "assay": "Resetpine-induced mouse body temperature decrease experiment (Experiment 2)", "source_text": "2.1 Experimental animals: ICR mice, male, 22.0±2 g of body weight, secondary, are provided by the Experimental Animal Science Department of Capital Medical University, Beijing.\n2.2 Experiment pharmaceuticals: The pharmaceutical of Embodiment 1 is provided by Beijing Wonner Biotech. Ltd. Co., Paroxetine (Paxil) is the product of Thong Mei Tianjin Smith Kline pharmaceuticals Co. Ltd., and Resetpine is the product of Guangdong BangMin Pharmaceutical Co., Ltd.\n2.4 Dose designs: 1. High dose of Embodiment 1 (80 mg/kg/d); 2. middle dose of Embodiment 1 (40 mg/kg/d); and 3. low dose of Embodiment 1 (20 mg/kg/d).\n(§1) 2.5.1 Group division and administration of drug: The mice are grouped randomly, and 10 mice are in each group. 1. High dose of Embodiment 1 (80 mg/kg, P.O., administered for 7 days); 2. middle dose of Embodiment 1 (40 mg/kg, P.O., administered for 7 days); 3. low dose of Embodiment 1 (20 mg/kg, P.O., administered for 7 days); 4.\n2.5.2 Experimental method: After 1 hour of the last administration of drug on the eighth day, the mouse's anal temperature is determined. […] After 4 hours of injecting Resetpine, the mouse's anal temperature is determined once again. […]\n2.5.3 Statistic calculation: The experimental data are represented as X±SD, and the experimental result is calculated as ANOVA by SPSS 11.5 statistic software."}, "ICR mice [3]": {"system": "ICR mice", "assay": "Resetpine-induced mouse body temperature decrease experiment (Experiment 4)", "source_text": "4.1 Experimental animals: ICR mice, male, 22.0±2 g of body weight, secondary, are provided by the Experimental Animal Science Department of Capital Medical University, Beijing.\n4.2 Experiment pharmaceuticals: The pharmaceutical of Embodiment 2 is provided by Beijing Wonner Biotech. Ltd. Co., Paroxetine (Paxil) is the product of Zhong Mei Tianjin Smith Kline pharmaceuticals Co. Ltd., and Resetpine is the product of Guangdong BangMin Pharmaceutical Co., Ltd.\n4.4 Dose designs: 1. High dose of Embodiment 2 (80 mg/kg/d); 2. middle dose of Embodiment 2 (40 mg/kg/d); and 3. low dose of Embodiment 2 (20 mg/kg/d).\nas §1, with “4.5.1 Group” for “2.5.1 Group”, “Embodiment 2” for “Embodiment 1”\n4.5.2 Experimental method: After 1 hour of the last administration of drug on the eighth day, the mouse's anal temperature is determined. […] After 4 hours of injecting Resetpine, the mouse's anal temperature is determined once again. […]\n4.5.3 Statistic calculation: The experimental data are represented as X±SD, and the experimental result is calculated as ANOVA by SPSS 11.5 statistic software."}, "[4]": {"conditions": "3 mg/kg P.O. 7 days, 4 h after Resetpine 2 mg/kg i.p."}}}
{"smiles": "Fc1ccc([C@@H]2CCNC[C@H]2COc2ccc3c(c2)OCO3)cc1", "note": "[Paroxetine]", "values": [{"measurement": "Time of non-movement", "setting": "ICR mice [1]", "value": "38.37 ± 20.76", "unit": "s"}, {"measurement": "Decreased temperature", "setting": "ICR mice [2]; [4]", "value": "2.38 ± 0.69", "unit": "°C"}, {"measurement": "Effect on reduced body temperature induced by Resetpine (in words)", "setting": "ICR mice [2]; high, middle and low doses of Embodiment 1, Paroxetine", "value": "decrease the reduced body temperature induced by Resetpine"}, {"measurement": "Decreased temperature", "setting": "ICR mice [3]; [4]", "value": "2.38 ± 0.69", "unit": "°C"}, {"measurement": "Effect on reduced body temperature induced by Resetpine (in words)", "setting": "ICR mice [3]; middle dose of Embodiment 2, Paroxetine", "value": "decrease the reduced body temperature induced by Resetpine"}]}
